Experimental findings from patent publication US11648248B1 (King Abdulaziz University, priority 2022, dated 2023) are described below.

The structures appear in SMILES notation.

For the first test, the system named is Escherichia coli BW25113 (wild-type). The experiment in a line: MIC broth microdilution, initial screening. To be noted: Escherichia coli, E. coli BW25113, 18-20 hours, read-out: minimum inhibitory concentration (MIC) E. coli (Wild-type). It is filed as cell-based. Background: In broth dilution the organism is exposed to a series of concentrations in liquid medium.
Turning to `CNC(=O)c1cc(Oc2ccc(NC(=O)Nc3ccc(Cl)c(C(F)(F)F)c3)cc2)ccn1` [Sorafenib, reference compound], the MIC was more than 128 µg/mL.
On the same count and under the same terms, the same measure for `CC(=O)NC[C@H]1CN(c2ccc(N3CCOCC3)c(F)c2)C(=O)O1` [Linezolid, reference compound]: more than 64 µg/mL.
Still for that read-out and setting: next, `O=C(Nc1ccc(Oc2ccc(=O)[nH]n2)cc1)Nc1ccc(Cl)c(C(F)(F)F)c1` [MY31, 1-(4-chloro-3-(trifluoromethyl)phenyl)-3-(4-((6-oxo-1,6-dihydropyridazin-3-yl)oxy)phenyl)urea]: more than 128 µg/mL; `O=C(Nc1ccc(Oc2ccc(=O)[nH]n2)cc1)Nc1ccc(Cl)c(Cl)c1` [MY24, 1-(3,4-dichlorophenyl)-3-(4-((6-oxo-1,6-dihydropyridazin-3-yl)oxy)phenyl)urea]: more than 128 µg/mL.
Still for that read-out and setting: next, `O=C(Nc1cccc(Nc2ccc(Cl)nn2)c1)Nc1ccc(Cl)c(Cl)c1` [MY14, 1-(3-((6-chloropyridazin-3-yl)amino)phenyl)-3-(3,4-dichlorophenyl)urea]: more than 128 µg/mL.

A further test has as its system Gram-positive strains. The test can be described thus: Relative MIC compared to reference drugs (FIG. 3). Format: cell-based.
Details: not given
The text has this:
FIG. 3. Relative MIC of MY31 compared to reference drugs.
For instance, it stopped the growth of VRSA strains with more potency than sorafenib (the prototype) and, as expected, much higher than vancomycin. […] Material and Methods
As for `O=C(Nc1ccc(Oc2ccc(=O)[nH]n2)cc1)Nc1ccc(Cl)c(C(F)(F)F)c1` [MY31, 1-(4-chloro-3-(trifluoromethyl)phenyl)-3-(4-((6-oxo-1,6-dihydropyridazin-3-yl)oxy)phenyl)urea], the “bacteriostatic activity relative to tested compounds and positive control antibiotics” value is “highest bacteriostatic activity among the tested compounds”.
